From the Deep4Chem optical property database
Several values for one entry are separate records, joined by “and”; a condition that tells them apart may be missing. Equal values may be shown once.

Test: solvent given as SMILES

Question: Which emission maximum (in C1CCCCC1) does the source give for `Cc1ccc(C2=C3C=C(I)C(I)=[N+]3[B-](F)(F)n3c2cc(I)c3I)cc1` here?
Answer: 593 nm

Question: And the emission maximum (in CC#N)?
Answer: 591 nm

Question: What about the emission maximum (in CCO) of the same compound?
Answer: 595 nm

Question: What about the emission maximum (in CCOC(C)=O) of the same compound?
Answer: 591.5 nm

Question: And the emission maximum (in CO)?
Answer: 593.5 nm

Question: What about the emission maximum (in OCC(F)(F)F) of the same compound?
Answer: 588 nm

Question: With `C=CC1CN2CCC1CC2[C@H](O)c1ccnc2ccc(OC)cc12` (stereo partly specified) as the compound, how does the emission maximum (in O) read?
Answer: 451 nm

Question: With `CCOC(=O)c1c(-c2cc3cc4c(cc3oc2=O)OC(C)(C)CC4)nn(-c2ccccc2)c1C(=O)OCC` as the compound, how does the emission maximum (in ClCCl) read?
Answer: 430 nm

Question: For `CCN(CC)c1ccc2ccc(=O)oc2c1`, which emission maximum (in CC(C)=O) is on record?
Answer: 430 nm

Question: What about the emission maximum (in CCCCCC) of the same compound?
Answer: 392 nm

Question: What about the emission maximum (in CCCCCCC) of the same compound?
Answer: 390 nm

Question: What about the emission maximum (in CCCCO) of the same compound?
Answer: 442 nm

Question: And the emission maximum (in CCCO)?
Answer: 442 nm

Question: And the emission maximum (in CCO)?
Answer: 443 nm

Question: And the emission maximum (in CCOCC)?
Answer: 405 nm

Question: What about the emission maximum (in CN(C)C=O) of the same compound?
Answer: 440 nm

Question: And the emission maximum (in CO)?
Answer: 445 nm

Question: What about the emission maximum (in Cc1ccccc1) of the same compound?
Answer: 418 nm

Question: And the emission maximum (in ClC(Cl)(Cl)Cl)?
Answer: 412 nm

Question: And the emission maximum (in ClC(Cl)Cl)?
Answer: 435 nm

Question: What about the emission maximum (in ClCCl) of the same compound?
Answer: 466 nm

Question: And the emission maximum (in OCCO)?
Answer: 445 nm

Question: And the emission maximum (in c1ccccc1)?
Answer: 395 nm

Question: For `CN1/C(=C/C=C(/C=C/C2=[N+](C)c3ccccc3C2(C)C)c2ccc(F)cc2)C(C)(C)c2ccccc21`, which emission maximum (in CCO) is on record?
Answer: 666 nm

Question: What about the emission maximum (in CO) of the same compound?
Answer: 666 nm

Question: And the emission maximum (in CS(C)=O)?
Answer: 669 nm

Question: What about the emission maximum (in O) of the same compound?
Answer: 662 nm

Question: For `CC1(C)c2ccccc2N(c2ccc3c(c2)C(C)(C)c2cc(N4c5ccccc5C(C)(C)c5ccccc54)ccc2S3(=O)=O)c2ccccc21`, which emission maximum (in C1CCOC1) is on record?
Answer: 473.1 nm

Question: And the emission maximum (in CC#N)?
Answer: 526.32 nm

Question: What about the emission maximum (in Cc1ccccc1) of the same compound?
Answer: 451.46 nm and 453.62 nm

Question: And the emission maximum (in ClCCl)?
Answer: 504 nm

Question: What does the source list for `Cc1ccc(NC(=O)c2sc(Br)nc2C)cc1`?
Answer: emission maximum (in C1CCOC1): 407.5 nm; emission maximum (in CC#N): 399.5 nm; emission maximum (in CCCCCC): 399 nm; emission maximum (in CCOC(C)=O): 404.5 nm; emission maximum (in CN(C)C=O): 451 nm; emission maximum (in CO): 403 nm; emission maximum (in CS(C)=O): 401.5 nm; emission maximum (in ClC(Cl)Cl): 412.4 nm

Question: With `C1=Cc2ccc(N(c3ccccc3)c3ccccc3)cc2Cc2cc(N(c3ccccc3)c3ccccc3)ccc21` as the compound, how does the emission maximum (in ClCCl) read?
Answer: 440 nm

Question: For `O=S1(=O)c2ccccc2Oc2cc(N3c4ccccc4C4(c5ccccc53)c3ccccc3N(c3ccc5c(c3)Oc3ccccc3S5(=O)=O)c3ccccc34)ccc21`, which emission maximum (in Cc1ccccc1) is on record?
Answer: 439.83 nm

Question: And the emission maximum (in O=P(c1ccccc1)(c1ccccc1)c1ccccc1Oc1ccccc1P(=O)(c1ccccc1)c1ccccc1)?
Answer: 464.9 nm

Question: For `CCc1ccccc1-c1c2ccccc2c(C#Cc2ccccc2)c2cc3ccccc3cc12`, which emission maximum (in ClCCl) is on record?
Answer: 537 nm

Question: With `N#Cc1ccc(C#Cc2ncc(-c3ccccc3)o2)cc1` as the compound, how does the emission maximum (in ClCCl) read?
Answer: 410 nm

Question: For `CC(C)n1c(=O)c2cc3ccc4cccc5ccc(c2c1=O)c3c45`, which emission maximum (in ClC(Cl)Cl) is on record?
Answer: 457 nm

Question: Which emission maximum (in ClCCl) does the source give for `COC(=O)CCC1=CC(C#Cc2ccc(OC)cc2)=[N+]2C1=Cc1c(CCC(=O)OC)cc(C#Cc3ccc(OC)cc3)n1[B-]2(F)F` here?
Answer: 682 nm

Question: With `O=S1c2ccc(-c3c4ccccc4cc4ccccc34)cc2-c2cc(-c3c4ccccc4cc4ccccc34)ccc21` as the compound, how does the emission maximum (in C1CCCCC1) read?
Answer: 405.03 nm

Question: And the emission maximum (in CC#N)?
Answer: 508.48 nm

Question: And the emission maximum (in ClCCl)?
Answer: 471.15 nm

Question: Which emission maximum (in ClCCl) does the source give for `CCN(CC)c1ccc2c(-c3ccccc3C(=O)O)c3c([o+]c2c1)/C(=C/c1ccc(N2CCCC2)s1)CCC3` here?
Answer: 770 nm

Question: Which emission maximum (in Cc1ccccc1) does the source give for `CCCCN1C(=O)c2cccc3c(N(C)C)ccc(c23)C1=O` here?
Answer: 486 nm

Question: For `CC(C)(C)c1ccc(C2=C(c3ccc(-n4c5ccc(C(C)(C)C)cc5c5cc(C(C)(C)C)ccc54)cc3)S(=O)(=O)c3c2sc(-c2ccc(-n4c5ccc(C(C)(C)C)cc5c5cc(C(C)(C)C)ccc54)cc2)c3-c2ccc(C(C)(C)C)cc2)cc1`, which emission maximum (in C1CCOC1) is on record?
Answer: 555 nm

Question: For `COc1ccc(-n2c(-c3ccc(-c4cncc5ccccc45)cc3)nc3c4ccccc4c4ccccc4c32)cc1`, which emission maximum (in C1CCOC1) is on record?
Answer: 429 nm

Question: With `CCC1(CC)c2cc(B(c3c(C)cc(C)cc3C)c3c(C)cc(C)cc3C)ccc2-c2c1c1c(c3c2C(CC)(CC)c2cc(B(c4c(C)cc(C)cc4C)c4c(C)cc(C)cc4C)ccc2-3)C(CC)(CC)c2cc(B(c3c(C)cc(C)cc3C)c3c(C)cc(C)cc3C)ccc2-1` as the compound, how does the emission maximum (in C1CCOC1) read?
Answer: 386 nm

Question: What about the emission maximum (in CC#N) of the same compound?
Answer: 403 nm

Question: And the emission maximum (in CC(C)=O)?
Answer: 396 nm

Question: What about the emission maximum (in CCCCCC) of the same compound?
Answer: 382 nm

Question: What about the emission maximum (in Cc1ccccc1) of the same compound?
Answer: 385 nm

Question: With `Cc1c(COC(=O)Cc2cccc3ccccc23)n2c(OCC(=O)Cc3cccc4ccccc34)c(C)c(=O)n2c1=O` as the compound, how does the emission maximum (in CCO) read?
Answer: 458 nm

Question: For `CC[C@H](C)COc1ccc(C2=C3C(C)=C(c4ccc5ccc6cccc7ccc4c5c67)C(C)=[N+]3[B-](F)(F)n3c(C)c(-c4ccc5ccc6cccc7ccc4c5c67)c(C)c32)cc1`, which emission maximum (in ClCCl) is on record?
Answer: 585 nm

Question: Which emission maximum (in ClC(Cl)Cl) does the source give for `CN1C(=CC2=C([O-])C(=CC3=[N+](C)c4ccccc4C3(C)C)C2=C2C(=O)NC(=O)NC2=O)C(C)(C)c2ccccc21` here?
Answer: 665 nm
